Residues, ends and D or L forms follow the SMILES beside them.
Key:
transgenic SOD mice = assay: Effect of NAALADase inhibitor on onset of clinical disease, transgenic mice model of FALS; format: in vivo; conditions: for Disease onset for compound treated mice: 50 mg/kg, from one month old
Method: The effect of NAALADase inhibitors on the onset of ALS was tested using the transgenic mice model of familial amyotrophic lateral sclerosis (FALS), which is detailed in Gurney, M., Annals of Neurology (1996) 39:147-157, and otherwise well known in the art. One month old transgenic SOD mice were treated with daily intraperitoneal injections of a vehicle (50 mM HEPES-buffered saline) or a NAALADase inhibitor (50 mg/kg 2-[[(2,3,4,5,6-pentafluorobenzyl)hydroxyphosphinyl]methyl]-pentanedioic acid (“Compound A” )). Clinical symptoms of the mice were monitored daily. The onset of clinical disease was scored by examining each mouse for its shaking of limbs when suspended in the air by its tail, cross spread of spinal reflexes, hindlimb paralysis, body weight and wheel running activity.

NAALADase = NAALADase (Rattus norvegicus, UniProt P70627); conditions: NAAG as substrate of NAALADase; cited from earlier work
Sequence of NAALADase (P70627 whole entry): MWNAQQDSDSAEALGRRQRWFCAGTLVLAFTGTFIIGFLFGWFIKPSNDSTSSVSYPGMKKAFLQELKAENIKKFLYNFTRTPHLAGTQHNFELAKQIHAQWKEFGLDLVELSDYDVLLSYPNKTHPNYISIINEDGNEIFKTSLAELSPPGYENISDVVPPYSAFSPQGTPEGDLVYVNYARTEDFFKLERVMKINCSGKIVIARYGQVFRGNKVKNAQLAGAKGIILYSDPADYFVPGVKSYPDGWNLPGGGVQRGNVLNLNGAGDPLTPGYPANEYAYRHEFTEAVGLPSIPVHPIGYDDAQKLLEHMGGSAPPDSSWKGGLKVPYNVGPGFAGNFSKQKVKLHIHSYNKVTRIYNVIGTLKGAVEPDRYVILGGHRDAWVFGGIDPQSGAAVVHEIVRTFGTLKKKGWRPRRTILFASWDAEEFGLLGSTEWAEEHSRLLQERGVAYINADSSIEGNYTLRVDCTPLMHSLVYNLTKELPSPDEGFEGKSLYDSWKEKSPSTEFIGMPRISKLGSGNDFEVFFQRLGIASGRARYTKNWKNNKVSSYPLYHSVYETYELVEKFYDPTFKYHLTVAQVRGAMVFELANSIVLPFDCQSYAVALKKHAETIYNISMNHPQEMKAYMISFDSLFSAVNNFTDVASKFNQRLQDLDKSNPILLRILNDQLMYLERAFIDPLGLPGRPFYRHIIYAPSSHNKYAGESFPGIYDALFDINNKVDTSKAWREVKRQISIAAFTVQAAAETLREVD

| SMILES | Difference in disease onset, compound treated vs vehicle treated mice (transgenic SOD mice; Study 1) | Disease onset for compound treated mice (transgenic SOD mice; Study 1, daily intraperitoneal injections) | Difference in disease onset, compound treated vs vehicle treated mice (transgenic SOD mice; Study 2) | Disease onset for compound treated mice (transgenic SOD mice; Study 2, daily intraperitoneal injections) | Km (NAALADase) [µM] |
| --- | --- | --- | --- | --- | --- |
| O=C(O)CCC(CCCS)C(=O)O (centres unmarked) [Compound B, 2-(3-sulfanylpropyl)pentanedioic acid] | 32 | 221 days of age | 25 | 166 days of age |  |
| CC(=O)N[C@@H](CC(=O)O)C(=O)N[C@@H](CCC(=O)O)C(=O)O [NAAG, N-acetyl-aspartyl-glutamate] (Ac-Asp-Glu-OH) |  |  |  |  | 0.54 |
